The values below come from patent US7741352B2, “KCNQ channel modulating compounds and their pharmaceutical use” (Neurosearch A/S, priority 2003, dated 2010).

For `O=C(O)c1ccc(OCCCN2CCCCC2)cc1O` [Compound 1-21, 2-Hydroxy-4-(3-piperidin-1-yl-propoxy)-benzoic acid], the melting point was 194 °C (dec.).

With `O=C(O)c1cccc(-c2cccc(COc3ccc(C(=O)O)c(O)c3)c2)c1` [Compound 3-21, 3′-(4-Carboxy-3-hydroxy-phenoxymethyl)-biphenyl-3-carboxylic acid], the melting point is 211 to 227 °C (dec.). Next, `O=C(O)c1ccc(OCc2ccc(-c3ccccc3)cc2)cc1O` [Compound 1-16, 4-(Biphenyl-4-ylmethoxy)-2-hydroxy-benzoic acid]: 216 to 219 °C (dec.). Next, `CCCCCCCCOc1ccc(NS(C)(=O)=O)c(O)c1` [Compound 9-2, N-(2-hydroxy-4-octyloxy-phenyl)-methanesulfonamide]: 98 to 101 °C. Take `CCCCCCCCOc1ccc(O)c(O)c1` [Compound 10-1, 4-Octyloxy-benzene-1,2-diol]: the melting point is 108 to 115 °C (dec.). Next, `NNC(=O)c1ccc(OCc2cccc(Br)c2)cc1O` [Compound 2-7, 4-(3-Bromo-benzyloxy)-2-hydroxy-benzoic acid hydrazide]: 201 to 203 °C; `O=C(O)c1ccc(OCc2cccc(-c3ccc4[nH]ccc4c3)c2)cc1O` [Compound 3-34, 2-Hydroxy-4-[3-(1H-indol-5-yl)-benzyloxy]-benzoic acid]: 193 to 196 °C (dec.). The value for `N#Cc1ccccc1-c1ccc(COc2ccc(C(=O)O)c(O)c2)cc1` [Compound 1-17, 4-(2′-Cyano-biphenyl-4-ylmethoxy)-2-hydroxy-benzoic acid] was 220 °C (dec.).

For the compound `CCCCCCCCOc1ccc(C#N)c(O)c1` [Compound 12-5, 2-Hydroxy-4-octyloxy-benzonitrile], the melting point lay in the range of 69 to 71 °C. Next, `O=C(O)c1ccc(OCc2ccc(-c3ccoc3)cc2)cc1O` [Compound 3-4, 4-(4-Furan-3-yl-benzyloxy)-2-hydroxy-benzoic acid]: 202 to 206 °C (dec.); `C=CCCCCCCOc1ccc(C(=O)O)c(O)c1` [Compound 1-10, 2-Hydroxy-4-oct-7-enyloxy-benzoic acid]: 102 to 111 °C. Next, `Cc1noc(C)c1COc1ccc(C(=O)O)c(O)c1` [Compound 1-1, 2-Hydroxy-4-(3,5-dimethyl-isoxazol-4-yl-methyloxy)-benzoic acid]: 201 to 203 °C.

As to `O=C(O)c1ccc(Oc2ccc(-c3ccccc3)cc2[N+](=O)[O-])cc1O` [Compound 8-4, 2-Hydroxy-4-(3-nitro-biphenyl-4-yloxy)-benzoic acid], the melting point was > 200 °C (dec.). The value for `O=C(O)c1ccc(OCCCCCCO)cc1O` [Compound 1-8, 2-Hydroxy-4-(6-hydroxyhexyloxy) benzoic acid] was 139 °C; that for `CC(=O)Nc1ccc(CNc2ccc(C(=O)O)c(O)c2)cc1` [Compound 6-3, 4-(4-Acetylamino-benzylamino)-2-hydroxy-benzoic acid] was 154 °C; that for `CCCCCCCCOc1ccc(C(N)=O)c(O)c1` [Compound 12-4, 2-Hydroxy-4-octyloxy-benzamide] was 123 to 124 °C. Next, `CN(C)S(=O)(=O)c1ccc(-c2cccc(COc3ccc(C(=O)O)c(O)c3)c2)cc1` [Compound 3-39, 4-(4′-Dimethylsulfamoyl-biphenyl-3-ylmethoxy)-2-hydroxy-benzoic acid]: 196 to 204 °C (dec.); `O=C(O)c1ccc(Oc2ccc([N+](=O)[O-])cc2)cc1O` [Compound 8-1, 2-Hydroxy-4-(4-nitro-phenoxy)-benzoic acid]: 195 to 197 °C. Next, `CC(=O)c1ccc(-c2ccc(COc3ccc(C(=O)O)c(O)c3)cc2)s1` [Compound 3-13, 4-[4-(5-Acetyl-thiophen-2-yl)-benzyloxy]-2-hydroxy-benzoic acid]: 244 to 248 °C (dec.). As for `N#Cc1cccc(-c2cccc(COc3ccc(C(=O)O)c(O)c3)c2)c1` [Compound 3-41, 4-(3′-Cyano-biphenyl-3-ylmethoxy)-2-hydroxy-benzoic acid], the melting point was 155 to 170 °C (dec.). On to `COCCOCCOc1ccc(C(=O)O)c(O)c1` [Compound 1-4, 2-Hydroxy-4-[2-(2-methoxy-ethoxy]-ethoxy]-benzoic acid], for which the melting point was 110 to 112 °C. The value for `CC(=O)Nc1cccc(-c2ccc(COc3ccc(C(=O)O)c(O)c3)cc2)c1` [Compound 3-12, 4-(3′-Acetylamino-biphenyl-4-ylmethoxy)-2-hydroxy-benzoic acid] was 231 to 233 °C (dec.). `O=C(O)c1ccc(OCc2ccc(-n3cncn3)cc2)cc1O` [Compound 1-2, 2-Hydroxy-4-(4-[1,2,4]triazol-1-yl-benzyloxy)-benzoic acid]: the melting point was 229 °C (dec.). `O=C(Nc1ccc(OCc2ccc(F)cc2)cc1O)C(F)(F)F` [Compound 9-3, 2,2,2-trifluoro-N-[4-(4-fluoro-benzyloxy)-2-hydroxy-phenyl]-acetamide] yielded a melting point of 143 to 145 °C. `O=C(c1ccccc1)c1ccc(COc2ccc(C(=O)O)c(O)c2)cc1` [Compound 1-20, 4-(4-Benzoyl-benzyloxy)-2-hydroxy benzoic acid] yielded a melting point of 198 to 199 °C. Next, `O=C(O)c1ccc(OCc2ccc(-c3ccc(CO)cc3)cc2)cc1O` [Compound 3-16, 2-Hydroxy-4-(4′-hydroxymethyl-biphenyl-4-ylmethoxy)-benzoic acid]: 222 to 226 °C (dec.). Next, `O=C(O)c1ccc(NCc2cccc([N+](=O)[O-])c2)cc1O` [Compound 6-1, 2-Hydroxy-4-(3-nitro-benzylamino)-benzoic acid]: 189 °C (dec.). Next, `CC(C)=CCC/C(C)=C/COc1ccc(C(=O)O)c(O)c1` [Compound 1-13, 4-(3,7-Dimethyl-octa-2,6-dienyloxy)-2-hydroxybenzoic acid]: 97 to 106 °C; `O=C(O)c1ccc(OCc2cccc(-c3cccnc3)c2)cc1O` [Compound 3-27, 2-Hydroxy-4-(3-pyridin-3-yl-benzyloxy)-benzoic acid]: 189 to 195 °C (dec.); `Cn1ccc2cc(-c3cccc(COc4ccc(C(=O)O)c(O)c4)c3)ccc21` [Compound 3-33, 2-Hydroxy-4-[3-(1-methyl-1H-indol-5-yl)-benzyloxy]-benzoic acid]: 181 to 183 °C (dec.). Compound `O=C(O)c1ccc(OCc2ccc(F)cc2)cc1O` [Compound 1-18, 4-(4-Fluoro-benzyloxy)-2-hydroxy-benzoic acid] displayed a melting point of 196 to 198 °C. The value for `O=C(O)c1ccc(OCC(O)CO)cc1O` (centres unmarked) [Compound 2-1, 4-(2,3-Dihydroxypropoxy)-2-hydroxy-benzoic acid] was 151 to 153 °C; that for `C=CCCCCOc1ccc(C(=O)O)c(O)c1` [Compound 1-7, 4-Hex-5-enyloxy-2-hydroxy-benzoic acid] was 105 °C; that for `O=C(O)c1ccc(OCc2cccc(-c3ccc4ccccc4c3)c2)cc1O` [Compound 3-38, 2-Hydroxy-4-(3-naphthalen-2-yl-benzyloxy)-benzoic acid] was 190 to 194 °C (dec.).

Compound `CCCCCCCCCc1ccc(C(=O)O)c(O)c1` [Compound 11-1, 4-Nonyl salicylic acid] registered a melting point of 94 to 97 °C.

As usually defined, the melting point is the temperature, or range, at which the solid turns liquid.
